Laboratory results: US10815312B2, “Bifunctional peptide having capability to permeate cells and capability to regenerate muscles and use thereof” (Seoul National University R&DB Foundation, priority 2018, dated 2020)

Tests used:
intracellular HDAC5 = molecular target: T1, intracellular HDAC5 (Mus musculus, UniProt Q9Z2V6); experiment: Binding ability to intracellular HDAC5 by immunoprecipitation; conditions: C2C12 cells treated for 2 hours, immunoprecipitation with HDAC5 antibody, western blotting with FITC antibody (FIG. 2)
T1 construct: endogenous in cells; host or cells: C2C12 muscle precursor cells
Description: Muscle precursor cells (C2C12) were transplanted at a density of 1.5×10^6/well in a 10 pi dish and cultured in EMEM (Eagle's Minimal Essential Medium, ATCC). The medium was replaced at 24-hour intervals until confluency of cells reached 50%. When the confluency was 50%, the medium was replaced with Essential 8 medium, and the cells were treated with the peptide of SEQ ID NO: 1 for 2 hours. Then, the binding ability to intracellular HDAC5 was identified by immunoprecipitation. The lysate harvested with RIPA buffer containing a protease inhibitor was quantified through a BCA assay. Each sample quantified with a minimum volume of 500 μl at a concentration of 1 μg/ml was collected in a microtube, 2 μg of HDAC5 first antibody was added thereto, and the mixture was reacted under rotation for 16 hours at 4° C. in a refrigerated state. 20 μl of protein A/G agarose beads were added and reacted at 4° C. for 3 hours. Then, the beads were centrifuged, washed three times with DPBS and heated at 85° C. for 5 minutes in a 2× sample buffer, and only the supernatant was obtained, followed by western blotting and identification using an FITC antibody.

mesenchymal stem cells = experiment: Differentiation of stem cells into myocytes, gene expression of muscle differentiation markers by real-time RT-PCR; assay type: cell-based; conditions: 100 μM peptide, muscle differentiation medium, real-time RT-PCR (FIG. 3)
Description: 3×10^6 mesenchymal stem cells were cultured in a bacterial culture dish for 3 days to form spheroids. The medium used was low-glucose DMEM with 10% FBS and 1% P/S. After 3 days, the supernatant was removed and only the spheroids were collected and seeded in a cell culture dish coated with 10 ug/ml of collagen type I for 4 days. The medium used was DMEM/F12 with 1 ng/ml TGFb (transforming growth factor beta), 1×NEAA (nonessential amino acids) and 1×ITS (insulin-transferrin selenium). After 4 days, the medium was changed to low-glucose DMEM with 2% FBS and 10 ng/ml IGF-1 (insulin growth factor-1), differentiation was further induced for 2 weeks, and muscle differentiation markers were identified. The cells were treated with 100 μM of the group not treated with peptide using only a muscle differentiation medium (NT), 100 μM of the groups treated with the peptides of SEQ ID NOS: 1 to 8 and 100 μM of the control peptide (SEQ ID NO: 9) in order to determine the efficiency of expression of the muscle differentiation markers by the peptides. The levels of gene expression of dystrophin and myogenin, as muscle differentiation markers, were measured through real-time RT-PCR. The base sequences of the PCR primers used for amplification of respective genes are as follows.

T1 sequence (Q9Z2V6 whole entry): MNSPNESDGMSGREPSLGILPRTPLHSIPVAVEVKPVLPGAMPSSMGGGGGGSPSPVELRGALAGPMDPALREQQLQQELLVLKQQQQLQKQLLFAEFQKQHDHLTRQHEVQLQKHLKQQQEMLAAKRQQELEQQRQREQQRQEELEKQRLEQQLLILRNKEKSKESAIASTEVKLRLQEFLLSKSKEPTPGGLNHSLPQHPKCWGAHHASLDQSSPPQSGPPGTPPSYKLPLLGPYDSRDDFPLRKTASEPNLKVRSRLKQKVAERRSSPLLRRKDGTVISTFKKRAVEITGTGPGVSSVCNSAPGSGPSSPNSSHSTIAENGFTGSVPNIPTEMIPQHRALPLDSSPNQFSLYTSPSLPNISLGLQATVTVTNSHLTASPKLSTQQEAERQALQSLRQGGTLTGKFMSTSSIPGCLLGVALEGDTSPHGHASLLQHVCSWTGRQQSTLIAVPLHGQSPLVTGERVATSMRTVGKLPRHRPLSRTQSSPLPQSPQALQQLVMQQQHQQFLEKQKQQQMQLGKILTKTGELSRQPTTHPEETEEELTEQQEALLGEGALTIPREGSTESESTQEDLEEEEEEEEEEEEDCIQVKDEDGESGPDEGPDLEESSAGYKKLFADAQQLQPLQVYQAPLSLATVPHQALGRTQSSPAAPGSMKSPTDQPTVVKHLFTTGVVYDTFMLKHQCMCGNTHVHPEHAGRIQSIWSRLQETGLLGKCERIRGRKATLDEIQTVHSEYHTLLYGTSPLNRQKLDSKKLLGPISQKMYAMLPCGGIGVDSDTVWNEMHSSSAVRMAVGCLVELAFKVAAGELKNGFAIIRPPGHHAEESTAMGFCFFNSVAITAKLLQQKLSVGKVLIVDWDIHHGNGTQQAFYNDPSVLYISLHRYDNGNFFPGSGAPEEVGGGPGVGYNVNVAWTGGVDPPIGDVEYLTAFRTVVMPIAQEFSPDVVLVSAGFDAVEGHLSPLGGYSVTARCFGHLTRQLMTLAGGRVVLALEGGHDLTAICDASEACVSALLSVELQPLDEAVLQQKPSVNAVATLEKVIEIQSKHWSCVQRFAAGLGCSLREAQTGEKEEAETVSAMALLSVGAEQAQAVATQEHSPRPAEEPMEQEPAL

| Sequence | binding to intracellular HDAC5 (intracellular HDAC5) | gene expression of dystrophin (mesenchymal stem cells) | gene expression of myogenin (mesenchymal stem cells) |
| --- | --- | --- | --- |
| GKCSTRGRKCCRRKK [SEQ ID NO: 1] | binds to intracellular HDAC5 | – | – |
| GLRSKSKKFRRPDIQYPDA (Control peptide C1) [SEQ ID NO: 9] | – | did not exhibit an increase in gene expression | did not exhibit an increase in gene expression |
